Paper PMC6888825, “Regulation of vanillate and syringate catabolism by a MarR-type transcriptional regulator DesR in Sphingobium sp. SYK-6” (Scientific Reports, 2019)

Columns and labels:
DesR (SLG_12870) = molecular target: T1, DesR (SLG_12870) (Sphingobium sp. SYK-6, UniProt G2IQU0); assay: EMSA, inhibition of DNA binding by purified DesR; details: effector (derepression); […] DesR, […] DIG-labelled desB, ligM or desR upstream probes, […] compound, pH […] °C
T1 construct: homodimer (42 kDa by SEC)
T1 sequence (G2IQU0 1-172): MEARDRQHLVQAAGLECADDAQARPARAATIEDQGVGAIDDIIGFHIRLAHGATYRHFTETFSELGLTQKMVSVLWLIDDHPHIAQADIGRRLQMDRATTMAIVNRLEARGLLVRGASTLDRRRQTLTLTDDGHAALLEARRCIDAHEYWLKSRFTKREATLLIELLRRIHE

[1] = molecular target: DesR, MarR-type transcriptional regulator (SLG_12870) of Sphingobium sp. SYK-6, His tag-fused (Sphingobium sp. SYK-6); assay: SEC; purified DesR (ca. 400 µg) on Superdex 200 Increase 10/300GL, 10 mM KH2PO4-K2HPO4 buffer (pH 7.4) with 140 mM NaCl, 1.0 ml/min; mass estimated against gel-filtration calibration kits (HMW and LMW)
[2] = system: T2, DesR (His-DesR) (Sphingobium sp. SYK-6), ORF:abc5f351; assay: EMSA; details: EMSA: 20 mM HEPES pH 7.6, 1 mM EDTA, 10 mM (NH4)2SO4, 1 mM DTT, 0.2% Tween 20, 30 mM KCl, 1 ug poly[d(I-C)], 500 pM probe, 20 C, 20 min
T2 sequence: T1 sequence (G2IQU0 1-172)

| Compound | EMSA, inhibition of DNA binding by purified DesR (DesR (SLG_12870)) | other results |
| --- | --- | --- |
| COc1cc(C(=O)O)cc(OC)c1O [SA, syringate] | decrease in the shift bands of the three probes was also observed in a concentration-dependent manner | – |
| COc1cc(C(=O)O)ccc1O [VA, vanillate] | In the presence of VA, shift bands of these three probes decreased in a concentration-dependent manner | – |
| DesR, MarR-type transcriptional regulator (SLG_12870) of Sphingobium sp. SYK-6, His tag-fused (natural protein) | – | stoichiometry N [1]: 2 |
| GCCGTTCCCCTCTCAGGCGCTCGAGATCGACAAAGGTCCGCGCCTTGCGCCGGATCAAGGACAGAGCTTGGCCGTGGACGGCCCGGAGTGACCGGATTTTCCGGCCGGTTTCACGCACTGCCCATTCGAAAAAATTTCGTTTGTGTCACATACAGAAGTTCGGCAGTCTGCCGGCATTGCTCAGCACCGGGCGGACCCGGAAGCCGAACATGCAGGAGAGGTCATATGGCAAAGATCATCGGCGGTTT (double strand) [desBp1] | – | binding [2]: binds |
